According to patent publication US4668627A, “Novel antibiotic compound” (Kureha Kagaku Kogyo Kabushiki Kaisha, priority 1982, dated 1987):
Converted amounts (≈) assume the structure as drawn.

Experiments:
[1] = tested on: Aspergillus oryzae IAM 2732; test: MIC, agar dilution, nutrient agar medium; type: cell-based; settings: IAM2732
[2] = tested on: Xanthomonas oryzae IAM 1657; test: microbe, parasite or virus in culture; type: cell-based; settings: IAM1657
[3] = tested on: Serratia marcescens IAM 1065; test: MIC, agar dilution, nutrient agar medium; type: cell-based; settings: IAM1065
[4] = tested on: Vibrio-metshnikov IAM 1039; test: MIC, agar dilution, nutrient agar medium; type: cell-based
[5] = tested on: Mycobacterium avium IFO 3082; test: MIC, agar dilution, nutrient agar medium; type: cell-based; settings: IFO3082
[6] = tested on: Klebsiella pneumoniae IFO 12015; test: MIC, agar dilution, nutrient agar medium; type: cell-based; settings: IFO12015
[7] = tested on: Staphylococcus aureus 209 p; test: MIC, agar dilution, nutrient agar medium; type: cell-based
[8] = tested on: Aspergillus fumigatus IAM 2155; test: MIC, agar dilution, nutrient agar medium; type: cell-based; settings: IAM2155
[9] = tested on: Lactobacillus acidophilus; test: MIC, agar dilution, nutrient agar medium; type: cell-based
[10] = tested on: Streptococcus pyogenes IFO 3340; test: MIC, agar dilution, nutrient agar medium; type: cell-based; settings: IFO3340
[11] = tested on: Peptostreptococcus micros; test: MIC, agar dilution, nutrient agar medium; type: cell-based; settings: Parvimonas micra
[12] = tested on: Micrococcus lysodeikticus; test: MIC, agar dilution, nutrient agar medium; type: cell-based; settings: Micrococcus luteus
[13] = tested on: Pseudomonas fluorescens IFO 3903; test: MIC, agar dilution, nutrient agar medium; type: cell-based; settings: IFO3903
[14] = tested on: Corynebacterium equi IFO 3730; test: MIC, agar dilution, nutrient agar medium; type: cell-based; settings: Rhodococcus (subgen. Prescottella) equi, IFO3730
[15] = tested on: Vibrio tyrogenes IAM 1080; test: MIC, agar dilution, nutrient agar medium; type: cell-based; settings: IAM1080
Eubacterium aerofaciens = test: MIC, agar dilution, nutrient agar medium; type: cell-based; settings: Collinsella aerofaciens
[16] = tested on: Corynebacterium faciens IAM 1079; test: MIC, agar dilution, nutrient agar medium; type: cell-based; settings: IAM1079
Pseudomonas putida T-2 = test: MIC, agar dilution, nutrient agar medium; type: cell-based; settings: T2
Pseudomonas ovalis = test: MIC, agar dilution, nutrient agar medium; type: cell-based; settings: Pseudomonas putida
[17] = tested on: Epidermophyton floccosum IFO 9045; test: MIC, agar dilution, nutrient agar medium; type: cell-based; settings: IFO9045
[18] = tested on: Candida albicans IAM 4905; test: MIC, agar dilution, nutrient agar medium; type: cell-based; settings: IAM4905
[19] = tested on: Aerobacter aerogenes ATCC 8724; test: MIC, agar dilution, nutrient agar medium; type: cell-based; settings: Klebsiella aerogenes, ATCC8724
[20] = tested on: Trichophyton rubrum IFO 5467; test: MIC, agar dilution, nutrient agar medium; type: cell-based; settings: IFO5467
Erwinia aroidae IAM 1068 = test: MIC, agar dilution, nutrient agar medium; type: cell-based; settings: IAM1068
[21] = tested on: Escherichia coli K-12 IAM 1264; test: MIC, agar dilution, nutrient agar medium; type: cell-based; settings: IAM1264
[22] = tested on: Salmonella abortusequi ATCC 9842; test: MIC, agar dilution, nutrient agar medium; type: cell-based; settings: Salmonella enterica, ATCC9842
[23] = tested on: Bifidobacterium adolescentis; test: MIC, agar dilution, nutrient agar medium; type: cell-based
[24] = tested on: Penicillium funiculosum IFO 6345; test: MIC, agar dilution, nutrient agar medium; type: cell-based; settings: Talaromyces funiculosus, IFO6345
[25] = tested on: Citrobacter freundii IFO 12681; test: MIC, agar dilution, nutrient agar medium; type: cell-based; settings: IFO12681
[26] = tested on: Micrococcus luteus PCI 1001; test: MIC, agar dilution, nutrient agar medium; type: cell-based; settings: PCI1001
[27] = tested on: Proteus vulgaris IFO 3167; test: MIC, agar dilution, nutrient agar medium; type: cell-based; settings: IFO3167
[28] = tested on: Fusobacterium necrophorum; test: MIC, agar dilution, nutrient agar medium; type: cell-based
Saccharomyces cerevisiae = test: MIC, agar dilution, nutrient agar medium; type: cell-based
[29] = tested on: Aspergillus niger IFO 6342; test: MIC, agar dilution, nutrient agar medium; type: cell-based; settings: IFO6342
mouse = test: acute toxicity to mouse, intraperitoneal; type: in vivo; settings: intraperitoneally, 100 mg/kg
[30] = tested on: Trichophyton interdigitale; test: MIC, agar dilution, nutrient agar medium; type: cell-based
[31] = tested on: various gram-positive and gram-negative bacteria; test: antibacterial activity (general statement); type: cell-based
[32] = tested on: Microsporum gypseum IFO 5948; test: MIC, agar dilution, nutrient agar medium; type: cell-based; settings: Nannizzia gypsea, IFO5948
[33] = tested on: Bacillus subtilis PCI 219; test: MIC, agar dilution, nutrient agar medium; type: cell-based; settings: PCI219
[34] = tested on: Proteus inconstans IFO 12930; test: MIC, agar dilution, nutrient agar medium; type: cell-based; settings: Providencia alcalifaciens, IFO12930
Bacteroides fragilis = test: MIC, agar dilution, nutrient agar medium; type: cell-based
[35] = tested on: Proteus mirabilis IFO 3849; test: MIC, agar dilution, nutrient agar medium; type: cell-based; settings: IFO3849
[36] = tested on: Peptostreptococcus parvulus; test: MIC, agar dilution, nutrient agar medium; type: cell-based; settings: Lancefieldella parvula
[37] = solubility in organic solvents; type: physicochemical
[38] = tested on: Proteus morganii IFO 3168; test: MIC, agar dilution, nutrient agar medium; type: cell-based; settings: Morganella morganii, IFO3168
Salmonella anatum 1 = test: MIC, agar dilution, nutrient agar medium; type: cell-based; settings: Salmonella enterica
Peptococcus aerogenes = test: MIC, agar dilution, nutrient agar medium; type: cell-based; settings: Peptoniphilus asaccharolyticus
[39] = tested on: Pseudomonas aeruginosa IFO 3080; test: MIC, agar dilution, nutrient agar medium; type: cell-based; settings: IFO3080

[C-]#[N+]C12CC3(/C=C/C(=O)O)OC3C1O2 (stereo not shown) [Antibiotic No. 2188, 3-(6-isocyano-3,7-dioxatricyclo[4.1.0.0^2,4]hept-4-yl)propenoic acid]
MIC [1]: > 200 µg/mL
MIC [2]: 50 µg/mL (≈ 259 µM)
MIC [3]: > 100 µg/mL
MIC [4]: 1.6 µg/mL (≈ 8.28 µM)
MIC [5]: 12.5 µg/mL (≈ 64.7 µM)
MIC [6]: 50 µg/mL (≈ 259 µM)
MIC [7]: 6.25 µg/mL (≈ 32.4 µM)
MIC [8]: 100 µg/mL (≈ 518 µM)
MIC [9]: 200 µg/mL (≈ 1040 µM)
MIC [10]: 6.25 µg/mL (≈ 32.4 µM)
MIC [11]: 25 µg/mL (≈ 129 µM)
MIC [12]: 6.25 µg/mL (≈ 32.4 µM)
MIC [13]: 12.5 µg/mL (≈ 64.7 µM)
MIC [14]: 6.25 µg/mL (≈ 32.4 µM)
MIC [15]: 3.1 µg/mL (≈ 16 µM)
MIC (Eubacterium aerofaciens): > 200 µg/mL
MIC [16]: 12.5 µg/mL (≈ 64.7 µM)
MIC (Pseudomonas putida T-2): 6.25 µg/mL (≈ 32.4 µM)
MIC (Pseudomonas ovalis): > 100 µg/mL
MIC [17]: 50 µg/mL (≈ 259 µM)
MIC [18]: > 200 µg/mL
MIC [19]: 50 µg/mL (≈ 259 µM)
MIC [20]: 50 µg/mL (≈ 259 µM)
MIC (Erwinia aroidae IAM 1068): 25 µg/mL (≈ 129 µM)
MIC [21]: 12.5 µg/mL (≈ 64.7 µM)
MIC [22]: 12.5 µg/mL (≈ 64.7 µM)
MIC [23]: 200 µg/mL (≈ 1040 µM)
MIC [24]: 200 µg/mL (≈ 1040 µM)
MIC [25]: 12.5 µg/mL (≈ 64.7 µM)
MIC [26]: 6.25 µg/mL (≈ 32.4 µM)
MIC [27]: 12.5 µg/mL (≈ 64.7 µM)
MIC [28]: 50 µg/mL (≈ 259 µM)
MIC (Saccharomyces cerevisiae): > 200 µg/mL
MIC [29]: > 200 µg/mL
acute toxicity (mouse): no acute toxicity
MIC [30]: 100 µg/mL (≈ 518 µM)
antibacterial activity [31]: shows an antibacterial activity against various gram-positive and gram-negative bacteria
MIC [32]: 100 µg/mL (≈ 518 µM)
MIC [33]: 12.5 µg/mL (≈ 64.7 µM)
MIC [34]: 50 µg/mL (≈ 259 µM)
MIC (Bacteroides fragilis): 50 µg/mL (≈ 259 µM)
MIC [35]: 50 µg/mL (≈ 259 µM)
MIC [36]: 50 µg/mL (≈ 259 µM)
solubility ([37]; hexane and petroleum ether): insoluble
solubility ([37]; methanol, ethanol, acetone, ethyl acetate, chloroform and benzene): soluble
MIC [38]: 12.5 µg/mL (≈ 64.7 µM)
MIC (Salmonella anatum 1): 12.5 µg/mL (≈ 64.7 µM)
MIC (Peptococcus aerogenes): 25 µg/mL (≈ 129 µM)
MIC [39]: 100 µg/mL (≈ 518 µM)
